In US8563714B2, “Bridged spiro [2.4] heptane derivatives as ALX receptor and/or FPRL2 agonists” (Actelion Pharmaceuticals Ltd., priority 2009, dated 2013):

Columns and labels:
human ALX receptor = target: T1, human ALX receptor (Homo sapiens, UniProt P25090); assay: Intracellular calcium measurements (FLIPR), agonistic activity in HEK293-hALXR-Gα16 cells; assay type: cell-based; details: Fluo-4 calcium FLIPR, normalized to WKYMVm 10 nM
T1 construct: expressed in transfected cells; host or cells: HEK293 (HEK293-hALXR-Gα16)
T1 sequence (P25090 1-351): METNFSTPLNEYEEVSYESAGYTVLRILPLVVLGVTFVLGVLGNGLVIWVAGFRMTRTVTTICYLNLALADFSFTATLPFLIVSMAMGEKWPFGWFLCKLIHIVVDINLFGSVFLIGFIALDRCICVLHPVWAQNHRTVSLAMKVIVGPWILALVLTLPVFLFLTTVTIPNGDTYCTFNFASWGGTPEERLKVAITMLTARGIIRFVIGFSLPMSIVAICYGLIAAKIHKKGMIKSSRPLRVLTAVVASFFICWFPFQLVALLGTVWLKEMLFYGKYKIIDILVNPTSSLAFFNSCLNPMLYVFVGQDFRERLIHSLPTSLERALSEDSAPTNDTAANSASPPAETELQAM
Procedure, shortened: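 Agonist-induced calcium flux was recorded by FLIPR (488/540 nm) in HEK293-hALXR-Gα16 cells pre-loaded with Fluo-4 AM (1 μM, 60 min, 37°C). Peak signal above baseline, after subtracting buffer addition, was expressed relative to WKYMVm at 10 nM final.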

human FPRL2 = target: T2, human FPRL2 (Homo sapiens, UniProt P25089); assay: Intracellular calcium measurements (FLIPR), agonistic activity in HEK293-hFPRL2-Gα16 cells; assay type: cell-based; details: Fluo-4 calcium FLIPR, normalized to GLY14-Humanin 100 nM
T2 construct: expressed in transfected cells; host or cells: HEK293 (HEK293-hFPRL2-Gα16)
T2 sequence (P25089 1-353): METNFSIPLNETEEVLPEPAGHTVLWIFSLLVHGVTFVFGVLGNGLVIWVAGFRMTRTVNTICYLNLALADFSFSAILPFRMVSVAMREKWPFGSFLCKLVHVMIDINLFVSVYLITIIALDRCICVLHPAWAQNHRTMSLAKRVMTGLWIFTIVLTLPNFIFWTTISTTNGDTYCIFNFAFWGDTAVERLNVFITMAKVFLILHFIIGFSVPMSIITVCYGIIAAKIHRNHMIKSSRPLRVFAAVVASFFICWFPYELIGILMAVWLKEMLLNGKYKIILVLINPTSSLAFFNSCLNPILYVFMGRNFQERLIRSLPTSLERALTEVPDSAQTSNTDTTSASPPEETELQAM
Procedure, shortened: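 Peak values after baseline subtraction are expressed relative to 100 nM Gly14-Humanin; compounds diluted in assay buffer from 10 mM DMSO stocks.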

| EC50 (human ALX receptor) | EC50 (human FPRL2) | SMILES |
| --- | --- | --- |
| 2 nM | 204 nM | COc1ccc(NC(=O)C2C(C(=O)NCCCCN3CCCC3)C3C=CC2C32CC2)cc1 (racemic) [Example 115, (5R*)—N^5-(4-Methoxyphenyl)-(6R*)—N^6-(4-pyrrolidin-1-yl-butyl)-(4S*,7R*)-[4,7-ethenylene-spiro[2.4]heptane]-5,6-dicarboxamide] |
| 7.8 nM | 891 nM | O=C(NCCCCN1CCCC1)C1C(C(=O)Nc2ccc(Cl)nc2)C2C=CC1C21CC1 (racemic) [Example 116, (5R*)—N^5-(2-Chloro-pyridin-5-yl)-(6R*)—N^6-(4-pyrrolidin-1-yl-butyl)-(4S*,7R*)-[4,7-ethenylene-spiro[2.4]heptane]-5,6-dicarboxamide] |
| 10 nM | 359 nM | O=C(NCCCCN1CCCC1)[C@H]1[C@H](C(=O)Nc2ccc3scnc3c2)[C@@H]2C=C[C@H]1C21CC1 (racemic) [Example 117, (5R*)—N^5-(Benzothiazol-5-yl)-(6R*)—N^6-(4-pyrrolidin-1-yl-butyl)-(4S*,7R*)-[4,7-ethenylene-spiro[2.4]heptane]-5,6-dicarboxamide] |

The remaining lines, values behind:

| SMILES | EC50 (human ALX receptor) | EC50 (human FPRL2) |
| --- | --- | --- |
| O=C(NC1CC1)[C@H]1[C@H](C(=O)Nc2ccc(Br)cc2)[C@@H]2CC[C@H]1C21CC1 (racemic) [Example 106, (5R*)—N^5-(4-Bromophenyl)-(6R*)—N^6-(cyclopropyl)-(4S*,7R*)-[4,7-ethylene-spiro[2.4]heptane]-5,6-dicarboxamide] | 82 nM | 2930 nM |
| O=C(NCCCO)[C@H]1[C@H](C(=O)Nc2ccc(Br)cc2)[C@@H]2CC[C@H]1C21CC1 (racemic) [Example 107, (5R*)—N^5-(4-Bromophenyl)-(6R*)—N^6-(3-hydroxy-propyl)-(4S*,7R*)-[4,7-ethylene-spiro[2.4]heptane]-5,6-dicarboxamide] | 1.8 nM | 2270 nM |
| O=C(NCCCn1ccnc1)[C@H]1[C@H](C(=O)Nc2ccc(Br)cc2)[C@@H]2CC[C@H]1C21CC1 (racemic) [Example 108, (5R*)—N^5-(4-Bromophenyl)-(6R*)—N^6-(3-(1H-imidazol-1-yl)-propyl)-(4S*,7R*)-[4,7-ethylene-spiro[2.4]heptane]-5,6-dicarboxamide] | 4.1 nM | 1480 nM |
| CN(C)CCCCCNC(=O)[C@H]1[C@H](C(=O)Nc2ccc(Br)cc2)[C@@H]2CC[C@H]1C21CC1 (racemic) [Example 109, (5R*)—N^5-(4-Bromophenyl)-(6R*)—N^6-(5-(dimethyl-amino)-pentyl)-(4S*,7R*)-[4,7-ethylene-spiro[2.4]heptane]-5,6-dicarboxamide] | 0.7 nM | 666 nM |
| O=C(NCCCN1CCCC1)[C@H]1[C@H](C(=O)Nc2ccc(Br)cc2)[C@@H]2CC[C@H]1C21CC1 (racemic) [Example 110, (5R*)—N^5-(4-Bromophenyl)-(6R*)—N^6-(3-pyrrolidin-1-yl-propyl)-(4S*,7R*)-[4,7-ethylene-spiro[2.4]heptane]-5,6-dicarboxamide] | 16 nM | 307 nM |
| CN1CCN(CCCNC(=O)[C@H]2[C@H](C(=O)Nc3ccc(Br)cc3)[C@@H]3CC[C@H]2C32CC2)CC1 (racemic) [Example 111, (5R*)—N^5-(4-Bromophenyl)-(6R*)—N^6-(3-(4-methyl-piperazin-1-yl)-propyl)-(4S*,7R*)-[4,7-ethylene-spiro[2.4]heptane]-5,6-dicarboxamide] | 1.3 nM | 71 nM |
| O=C(NCCCCN1CCCC1)C1C(C(=O)Nc2ccc(Br)nc2)C2C=CC1C21CC1 (racemic) [Example 114, (5R*)—N^5-(2-Bromopyridin-5-yl)-(6R*)—N^6-(4-pyrrolidin-1-yl-butyl)-(4S*,7R*)-[4,7-ethenylene-spiro[2.4]heptane]-5,6-dicarboxamide] | 1.4 nM | 532 nM |
